The assay relates to SMN2-linked luciferase-reporter gene construct. Briefly: SMN Splice Reporter Assay (SMN2-linked luciferase reporter). In kind it is cell-based. To be noted: for EC50: cervical carcinoma cell lines, SMN2 splice luciferase reporter; for Fold Increase: fold-increase of luciferase over baseline reading of transformed cells without any test compound. An excerpt:
As previously discussed, SMN1 is the gene deleted in SMA patients; the SMN2 gene remains intact in both SMA and normal patients. Therefore, SMN2 provides a potential means of increasing SMN production in SMA patients and is, thus, a target for developing SMA treatments. SMN2 is identical to SMN1 with the exception of a single base pair change that results in reduced expression of the gene. The reduction is based on the creation of an alternatively spliced RNA that produces an unstable protein carrying a deletion of exon 7. Both full length SMN and exon 7 deleted SMN are produced by the SMN2 gene via alternative RNA splicing, but the major product is the unstable deleted form.
Cervical carcinoma cell lines were transformed with a SMN2-linked luciferase-reporter gene construct. The reporter is designed to detect shifts in the alternative splicing of SMN2 sequences. In particular, the reporter is constructed as a fusion of the alternatively spliced sequences of the SMN2 gene and the luciferase gene. Luciferase sequences are in the correct translational reading frame only when the SMN2 sequences are spliced according to the normal SMN1 mechanism (e.g., splicing to include exon 7), which allows for translation of the stable SMN protein. Compounds were tested in the assay by administering the compound to the cell line and detecting an increase in the luciferase activity. The assay is described in greater detail in Zhang et al., Gene Ther., 8: 1532-8 (2001). Compounds were administered as described in Lunn et al, Chem. & Biol, 11: 1489-1493 (2004).
The results are reported as a fold-increase over a baseline reading of transformed cells without any test compound. The EC50 value also is reported in Table 1 for some exemplary compounds of the invention.
On the technique in general: A reporter such as luciferase makes a cellular process visible.

The EC50 is the concentration needed to bring the measured effect to its halfway point. A lower EC50 goes with higher potency in that assay.

Take `O=C1c2cc(OC(F)F)ccc2CN1c1ccc2sccc2c1` [Example 121644]: a half-maximal response (EC50) required 115 nM and the “Fold Increase” value is 1.801.
Regarding `COc1ccc2c(c1)C(=O)N(c1ccc3nccc(O)c3c1)C2` [Example 121645], the “Fold Increase” value is 1.093.
On to `CCCOc1ccc2c(c1)C(=O)N(c1ccc3c(ccn3C)c1)C2` [Example 121785], for which the EC50 is 80 nM and the “Fold Increase” value was found to be 1.29.
As to `COc1ccc2c(c1)C(=O)N(c1ccc3c(ccc[n+]3[O-])c1)C2` [Example 121786], a half-maximal response (EC50) required 188 nM and the “Fold Increase” value is on record as 1.498.
As for `O=C1c2cc(OC(F)F)ccc2CN1c1ccc2c(ccn2C(F)F)c1` [Example 121787], the “Fold Increase” value turned out to be 1.221.
Consider `COc1ccc2c(c1)C(=O)N(c1ccc3c(ccn3C(F)F)c1)C2` [Example 121788], for which the “Fold Increase” value is 1.19.
`Cn1ccc2cc(N3Cc4ccc(S(C)(=O)=O)cc4C3=O)ccc21` [Example 121790]: it took 556 nM to reach a half-maximal effect (EC50) and the “Fold Increase” value is given as 1.336.
Take `COc1ccc2c(c1)C(=O)N(c1ccc3ncncc3c1)C2` [Example 121791]: a half-maximal response (EC50) required 1060 nM and the “Fold Increase” value was 1.448.
Take `COc1ccc2c(c1)C(=O)N(c1cc3ccn(C)c3cn1)C2` [Example 121792]: the EC50 was 101 nM and the “Fold Increase” value was determined as 1.384.
Take `CCc1ccc2c(c1)C(=O)N(c1ccc3c(ccn3C)c1)C2` [Example 121793]: it took 85 nM to reach a half-maximal effect (EC50) and the “Fold Increase” value was 1.529.
Turning to `COc1ccc2c(c1)C(=O)N(c1ccc3c(c1)NCCN3)C2` [Example 121921], the EC50 turned out to be 217 nM and the “Fold Increase” value is listed as 1.365.
Take `CCCCOc1ccc2c(c1)C(=O)N(c1ccc3c(ccn3C)c1)C2` [Example 121922]: the concentration for a half-maximal effect (EC50) was found to be 225 nM and the “Fold Increase” value was determined as 1.301.
`CC(C)Oc1ccc2c(c1)C(=O)N(c1ccc3c(ccn3C)c1)C2` [Example 121923]: the “Fold Increase” value is listed as 1.194.
Regarding `Cn1ccc2cc(N3Cc4ccc(F)cc4C3=O)ccc21` [Example 121925], the response was half-maximal at 193 nM (EC50) and the “Fold Increase” value is 1.347.
The corresponding values for `COc1cc2c(cc1F)CN(c1ccc3c(ccn3C)c1)C2=O` [Example 121926] are 199 nM and 1.533.
For `CC(C)Cc1ccc2c(c1)C(=O)N(c1ccc3c(ccn3C)c1)C2` [Example 121927], the EC50 stood at 36 nM and the “Fold Increase” value was 1.323.
As for `CCCCc1ccc2c(c1)C(=O)N(c1ccc3c(ccn3C)c1)C2` [Example 121928], the response was half-maximal at 148 nM (EC50) and the “Fold Increase” value was 1.384.
Consider `Cn1ccc2cc(N3Cc4ccc(OC5CCCC5)cc4C3=O)ccc21` [Example 121929], for which the EC50 was found to be 83 nM and the “Fold Increase” value came to 1.316.
Regarding `Nc1ccc2c(c1)C(=O)N(c1ccc3ccsc3c1)C2` [Example 122036], the EC50 was found to be 347 nM and the “Fold Increase” value was 1.827.
As to `Cn1ccc2cc(N3Cc4ccc(C(F)(F)F)cc4C3=O)ccc21` [Example 122037], the EC50 amounted to 862 nM and the “Fold Increase” value was found to be 1.406.
Take `CN(C)c1ccc2c(c1)C(=O)N(c1ccc3ccsc3c1)C2` [Example 122038]: the EC50 came to 38 nM and the “Fold Increase” value is 1.592.
For `COc1ccc2c(c1)C(=O)N(c1ccc3nc(N(C)C)ncc3c1)C2` [Example 122039], in that order: 7120 nM and 1.459.
Regarding `COc1ccc(-c2ccc3c(c2)C(=O)N(c2ccc4c(ccn4C)c2)C3)cc1` [Example 122040], the “Fold Increase” value is given as 1.148.
Regarding `C/C=C(/C)c1ccc2c(c1)C(=O)N(c1ccc3c(ccn3C)c1)C2` [Example 122041], it took 76 nM to reach a half-maximal effect (EC50) and the “Fold Increase” value worked out at 1.606.
For `Cn1ccc2cc(N3Cc4ccc(-c5cccnc5)cc4C3=O)ccc21` [Example 122042], in that order: 728 nM and 1.422.

The record behind these values is patent US20100267712A1, “ISOINDOLINE COMPOUNDS FOR THE TREATMENT OF SPINAL MUSCULAR ATROPHY AND OTHER USES” (The United States of America, as represented by the …, priority 2007, published 2010).
